Laboratory results reported in patent US3978210A, “Antibiotic aculeacins” (Toyo Jozo Kabushiki Kaisha, priority 1974, dated 1976).

How the values were obtained:
Candida albicans = assay: Activity against yeasts, minimum inhibitory concentration; assay type: cell-based; set-up: unit not given here; details: Sabroud agar, 30°C., 48 hours
Description: (§1) 2. Activity against yeasts:
(§2) Assay medium: Sabroud agar, at 30°C., for 48 hours.

Aspergillus fumigatus = assay: Activity against fungi, giant colony growth inhibition; assay type: cell-based; details: Sabroud agar, 26°C., 7 to 14 days
Description: (§3) 3. Activity against fungi:
(§4) Since aculeacins have no fungicidal activity, fungi are inoculated in Sabroud agar medium containing several concentrations of aculeacins, and incubated at 26°C. 7 to 14 days. 80% growth inhibitory concentrations of aculeacins are measured by the ratio of area of giant colony to that of control without aculeacins.

Helminthosporium oryzae = assay: as above; assay type: cell-based; details: Sabroud agar, 26°C., 7 to 14 days
Description: as §3, §4

Corynespora cassicola = assay: as above; assay type: cell-based; details: Sabroud agar, 26°C., 7 to 14 days
Description: as §3, §4

Cercospora kikuchii = assay: as above; assay type: cell-based; details: Sabroud agar, 26°C., 7 to 14 days
Description: as §3, §4

[1] = system: Fusarium oxysporum f. lini; assay: as above; assay type: cell-based; details: Sabroud agar, 26°C., 7 to 14 days
Description: as §3, §4

Microsporum gypseum = assay: as above; assay type: cell-based; details: Sabroud agar, 26°C., 7 to 14 days
Description: as §3, §4

Ascochyta soyaecola = assay: as above; assay type: cell-based; details: Sabroud agar, 26°C., 7 to 14 days
Description: as §3, §4

Trichophyton rubrum = assay: as above; assay type: cell-based; details: Sabroud agar, 26°C., 7 to 14 days
Description: as §3, §4

Diaporthe phaseolorum = assay: as above; assay type: cell-based; details: Sabroud agar, 26°C., 7 to 14 days
Description: as §3, §4

Trichophyton asteroides = assay: as above; assay type: cell-based; details: Sabroud agar, 26°C., 7 to 14 days
Description: as §3, §4

Sclerotium bataticola = assay: as above; assay type: cell-based; details: Sabroud agar, 26°C., 7 to 14 days
Description: as §3, §4

Glomerella cingulata = assay: as above; assay type: cell-based; details: Sabroud agar, 26°C., 7 to 14 days
Description: as §3, §4

[2] = system: Collectotrichum linicolum; assay: as above; assay type: cell-based; details: Sabroud agar, 26°C., 7 to 14 days
Description: as §3, §4

mouse = assay: Acute toxicity on mouse, LD50; assay type: in vivo
Excerpt: 4. Acute toxicity on mouse:
Aculeacins are almost insoluble in water, soluble in 1% sodium carboxy-methyl cellulose (CMC) solution and sodium deoxycholate (DOC). LD50 of aculeacin-A injection prepared by using those additives is as follows: […]

Cryptococcus neoiormans = assay: Activity against yeasts, minimum inhibitory concentration; assay type: cell-based; details: Sabroud agar, 30°C., 48 hours
Description: as §1, §2

Candida tropicalis = assay: as above; assay type: cell-based; details: Sabroud agar, 30°C., 48 hours
Description: as §1, §2

Mycotorula japonica = assay: as above; assay type: cell-based; details: Sabroud agar, 30°C., 48 hours
Description: as §1, §2

Candida pseudotropicalis = assay: as above; assay type: cell-based; details: Sabroud agar, 30°C., 48 hours
Description: as §1, §2

Candida krusei = assay: as above; assay type: cell-based; details: Sabroud agar, 30°C., 48 hours
Description: as §1, §2

Saccharomyces cerevisiae = assay: as above; assay type: cell-based; details: Sabroud agar, 30°C., 48 hours
Description: as §1, §2

Candida quilliermondii = assay: as above; assay type: cell-based; details: Sabroud agar, 30°C., 48 hours
Description: as §1, §2

Torula utilis = assay: as above; assay type: cell-based; details: Sabroud agar, 30°C., 48 hours
Description: as §1, §2

Candida parakrusei = assay: as above; assay type: cell-based; details: Sabroud agar, 30°C., 48 hours
Description: as §1, §2

Saccharomyces sake = assay: as above; assay type: cell-based; details: Sabroud agar, 30°C., 48 hours
Description: as §1, §2

Substance: Aculeacin-A
- minimum inhibitory concentration (Candida albicans; Candida albicans 1): 0.2
- minimum inhibitory concentration (Candida albicans; Candida albicans 2): < 0.1
- minimum inhibitory concentration (Candida albicans; Candida albicans 3): < 0.1
- minimum inhibitory concentration (Candida albicans; Candida albicans 4): 0.2
- minimum inhibitory concentration (Candida albicans; Candida albicans 5): 1.6
- minimum inhibitory concentration (Candida albicans; Candida albicans 6): < 0.1
- minimum inhibitory concentration (Candida albicans; Candida albicans 7): 3.2
- minimum inhibitory concentration (Candida albicans; Candida albicans 8): 0.1
- 80% growth inhibitory concentration (Aspergillus fumigatus): 0.5 gamma/ml.
- 80% growth inhibitory concentration (Helminthosporium oryzae): 0.008 gamma/ml.
- 80% growth inhibitory concentration (Corynespora cassicola): 2.0 gamma/ml.
- 80% growth inhibitory concentration (Cercospora kikuchii): 4.0 gamma/ml.
- 80% growth inhibitory concentration [1]: 2.0 gamma/ml.
- 80% growth inhibitory concentration (Microsporum gypseum): 0.008 gamma/ml.
- 80% growth inhibitory concentration (Ascochyta soyaecola): 0.08 gamma/ml.
- 80% growth inhibitory concentration (Trichophyton rubrum): 0.006 gamma/ml.
- 80% growth inhibitory concentration (Diaporthe phaseolorum): 0.01 gamma/ml.
- 80% growth inhibitory concentration (Trichophyton asteroides): 0.004 gamma/ml.
- 80% growth inhibitory concentration (Sclerotium bataticola): 0.08 gamma/ml.
- 80% growth inhibitory concentration (Glomerella cingulata): 0.06 gamma/ml.
- 80% growth inhibitory concentration [2]: 0.4 gamma/ml.
- LD50 (mouse; i.m., in CMC): > 3460 mg/kg
- LD50 (mouse; i.m., in DOC): 600 mg/kg
- LD50 (mouse; i.p., in CMC): 600 mg/kg
- LD50 (mouse; i.v., in DOC): 350 mg/kg
- LD50 (mouse; p.o., in CMC): > 3000 mg/kg
- minimum inhibitory concentration (Cryptococcus neoiormans): > 100
- minimum inhibitory concentration (Candida tropicalis): > 100
- minimum inhibitory concentration (Mycotorula japonica): < 0.1
- minimum inhibitory concentration (Candida pseudotropicalis): 0.8
- minimum inhibitory concentration (Candida krusei): 0.8
- minimum inhibitory concentration (Saccharomyces cerevisiae): 1.6
- minimum inhibitory concentration (Candida quilliermondii): 0.8
- minimum inhibitory concentration (Torula utilis): < 0.1
- minimum inhibitory concentration (Candida parakrusei): 3.2
- minimum inhibitory concentration (Saccharomyces sake): 1.6
